# Experimental data from publication PMC10743086, “Immunofluorescence-Based Assay for High-Throughput Analysis of Multidrug Resistance Markers in Non-Small Cell Lung Carcinoma Patient-Derived Cells” (Diagnostics, 2023).
# pIC50: −log10 of the molar value.
# Legend:
# Format in all cases: cell-based, human
# [1] = test system: NCI-H460/R cells; test: Cytotoxicity by immunofluorescence cell scoring (cell counts), multidrug-resistant NSCLC cell line; details: for pIC50: Homo sapiens, 24 h treatment
# How it was run: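 ABCB1-overexpressing NCI-H460/R cells, doxorubicin-selected, treated 48 h after seeding for 24 h. Cytotoxicity from automated imaging cell counts after fixation and CK8/18 plus MDR-marker immunostaining, using cell-scoring analysis.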
# [2] = test system: NCI-H460 cells; test: Cytotoxicity by immunofluorescence cell scoring (cell counts), NSCLC cell line; details: Homo sapiens, NCI-H460, 24 h, 24 h treatment
# How it was run: (§1)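 Compounds added 48 h after seeding, then 24 h exposure. Cells fixed in 4% paraformaldehyde, BSA-blocked, co-stained for ABCB1 with CK8/18 to separate cancer from stromal cells; 4x automated imaging. Cytotoxicity from cell-count scoring; ABCB1 expression from multi-wavelength cell scoring.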
# [3] = test system: ABCB1 expression in NCI-H460 cells; test: Immunofluorescence assay of MDR marker ABCB1 expression; details: five concentrations, 24 h
# How it was run: as §1
# [4] = test system: ABCB1 expression in NCI-H460/R cells; test: as above; details: five concentrations, 24 h
# How it was run: as §1
# [5] = test system: ABCB1 expression in MRC-5 cells; test: as above; details: five concentrations, 24 h
# How it was run: as §1
# [6] = test system: Cancer cells (CK8/18+) of patient-derived NSCLC cultures; test: Cytotoxicity in patient-derived NSCLC cultures, cancer cells; details: Homo sapiens, 168 h, 7 days treatment
# How it was run: (§2)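 Primary NSCLC cultures from surgically resected tumours, enzymatically dissociated, grown in supplemented DMEM/Ham's F12, seeded 1000 cells/well and drug-treated 72 h later for 7 days. PFA-fixed cells co-immunostained for CK8/18 (separating cancer from stromal cells) and ABCB1, ABCC1 or ABCG2.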
# [7] = test system: ABCG2 expression in cancer cells (CK8/18+); test: Immunofluorescence assay of ABCG2 expression in patient-derived NSCLC cultures; details: 7 days
# How it was run: as §2
# [8] = test system: MRC-5 cells; test: Cytotoxicity by immunofluorescence cell scoring (cell counts), normal fibroblasts; details: Homo sapiens, MRC5, 24 h, 24 h treatment
# How it was run: as §1
# [9] = test system: ABCC1 expression in cancer cells (CK8/18+); test: Immunofluorescence assay of ABCC1 expression in patient-derived NSCLC cultures; details: 7 days
# How it was run: as §2
# [10] = NCI-H460/R (co-culture with MRC-5)
# [11] = NCI-H460 (co-culture with MRC-5)
# [12] = MRC-5 (co-culture with NCI-H460)
# [13] = MRC-5 (co-culture with NCI-H460/R)
# [14] = culture TR58, cancer cells (CK8/18+)
# [15] = culture TR64, cancer cells (CK8/18+)
# [16] = culture TR65, cancer cells (CK8/18+)
# [17] = culture TR84, cancer cells (CK8/18+)
# [18] = culture TR87, cancer cells (CK8/18+)
smiles,measurement,setting,value
CCC1=C[C@@H]2CN(C1)Cc1c([nH]c3ccccc13)[C@@](C(=O)OC)(c1cc3c(cc1OC)N(C)[C@H]1[C@@](O)(C(=O)OC)[C@H](OC(C)=O)[C@]4(CC)C=CCN5CC[C@]31[C@@H]54)C2 [Vinorelbine],pIC50,[1]; [10],6.08
same,pIC50,[1]; NCI-H460/R monoculture,6.00
same,resistance of NCI-H460/R cells compared to the NCI-H460 cells,"[1]; ratio of IC50 values, monocultures",27 fold
same,pIC50,[2]; [11],7.48
same,pIC50,[2]; NCI-H460 monoculture,7.44
same,ABCB1 Expression,[3]; [11],increase (An increase in ABCB1 expression of at least 20% at a minimum of one concentration is shown in the table.)
same,ABCB1 Expression,[3]; NCI-H460 monoculture,increase (An increase in ABCB1 expression of at least 20% at a minimum of one concentration is shown in the table.)
same,ABCB1 Expression,[4]; [10],no change
same,ABCB1 Expression,[4]; NCI-H460/R monoculture,no change
same,ABCB1 Expression,[5]; [12],no change
same,ABCB1 Expression,[5]; [13],no change
same,ABCB1 Expression,[5]; MRC-5 monoculture,no change
same,pIC50,[6]; [14],6.89
same,pIC50,[6]; [15],6.77
same,pIC50,[6]; [16],< 6.00
same,pIC50,[6]; [17],6.75
same,pIC50,[6]; [18],< 6.00
same,ABCG2 expression,[7]; [14],"increase (An increase in ABCB1, ABCC1, or ABCG2 expression of at least 20% at a minimum of one concentration is shown in the table.)"
same,ABCG2 expression,[7]; [15],"increase (An increase in ABCB1, ABCC1, or ABCG2 expression of at least 20% at a minimum of one concentration is shown in the table.)"
same,ABCG2 expression,[7]; [16],"increase (An increase in ABCB1, ABCC1, or ABCG2 expression of at least 20% at a minimum of one concentration is shown in the table.)"
same,ABCG2 expression,[7]; [17],"increase (An increase in ABCB1, ABCC1, or ABCG2 expression of at least 20% at a minimum of one concentration is shown in the table.)"
same,ABCG2 expression,[7]; [18],"increase (An increase in ABCB1, ABCC1, or ABCG2 expression of at least 20% at a minimum of one concentration is shown in the table.)"
same,pIC50,[8]; [12],6.32
same,pIC50,[8]; [13],< 6.00
same,pIC50,[8]; MRC-5 monoculture,< 6.00
same,ABCC1 expression,[9]; [14],no change
same,ABCC1 expression,[9]; [15],"increase (An increase in ABCB1, ABCC1, or ABCG2 expression of at least 20% at a minimum of one concentration is shown in the table.)"
same,ABCC1 expression,[9]; [16],"increase (An increase in ABCB1, ABCC1, or ABCG2 expression of at least 20% at a minimum of one concentration is shown in the table.)"
same,ABCC1 expression,[9]; [17],"increase (An increase in ABCB1, ABCC1, or ABCG2 expression of at least 20% at a minimum of one concentration is shown in the table.)"
same,ABCC1 expression,[9]; [18],"increase (An increase in ABCB1, ABCC1, or ABCG2 expression of at least 20% at a minimum of one concentration is shown in the table.)"
